Reference: patent US11744815B1, “Pharmaceutical composition of dimethylguanidino valeric acid and plant flavonoids for treating chronic inflammatory diseases and cancer” (priority 2022, dated 2023)
“Also recorded” adds a separate entry of the source.

How the values were obtained:
[1] = system: AGXT2^−/− T cells; experiment: ROS induction in AGXT2-KO T cells; format: cell-based, mice; conditions: ADMA 10 μM, SDMA 10 μM, DMGV (504)
Experimental: DMGV is converted from asymmetric dimethylarginine (ADMA) or symmetric dimethylarginine (SDMA) by alanine-glyoxylate aminotransferase 2 (AGXT2) in the mitochondria whereas ADMA or SDMA is metabolized to L-citrulline in the cytosol as shown in FIG. 6A. In order to investigate the role of DMGV in T cells, we generated AGXT2-KO (AGXT2^−/−) mice using Crispr/Cas9 technology according to FIG. 6B. Neither ADMA (10 μM) or SDMA (10 μM) induce ROS in AGXT2^−/− T cells but DMGV (504) still does, an evidence that SDMA or ADMA induces ROS only when they are converted to DMGV (FIG. 6C).

[2] = system: Jurkat T cells; experiment: Mitochondrial ROS by flow cytometry using CellROX Green, Jurkat T cells; format: cell-based, human; conditions: for induction of ROS: Jurkat T cells, kaempferol 5 μM, quercetin 25 μM, daidzein 5 μM
Experimental: The invention further investigated how DMGV suppresses cell proliferation and survival.
In order to locate the cellular compartment of ROS generated by DMGV, Jurkat T cells were incubated with the mitochondria-specific ROS inhibitor MitoQ (100 nM) for 15 min before stimulation with DMGV (504) for ROS measurement.
(§1) As certain flavonoids are known to active MCU, we tested whether DMGV and the flavonoids activate MCU in the same manner. Jurkat T cells were treated with the flavonoids [kaempferol (5 μM), quercetin (25 μM), or daidzein (5 μM)]. […] The molecular docking simulator SwissDock predicted that the flavonoids and DMGV bind to MCU in a same pocket.

[3] = system: human T cells; experiment: Human T cell survival by flow cytometry after 4 days; format: cell-based
[4] = system: AGXT2^+/+ and AGXT2^−/− T cells; experiment: Survival of AGXT2^+/+ and AGXT2^−/− T cells, 4 days, flow cytometry; format: cell-based, mice; conditions: MitoQ 100 nM with DMGV 504, 4 days
Experimental: To investigate the role of AGXT2 and DMGV in T cell survival, AGXT2^+/+ and AGXT2^−/− T cells were stimulated with the indicated compounds (ADMA: 10 μM, SDMA: 10 μM, DMGV: 504, MitoQ: 100 nM) for 4 days and the survival rate was measured by flow cytometry.

[5] = system: T cell; experiment: ROS induction and T cell proliferation with selective iNOS inhibitor; format: cell-based
[6] = molecular target: T1, MCU (Homo sapiens, UniProt Q8NE86); experiment: Mitochondrial calcium influx in Jurkat cells expressing Mito-GEM-GECO; format: cell-based; conditions: for induction of mitochondrial calcium: Jurkat T cells, kaempferol 5 μM, quercetin 25 μM, daidzein 5 μM
T1 construct: endogenous in cells; host or cells: Jurkat T cells
T1 sequence (Q8NE86 51-351): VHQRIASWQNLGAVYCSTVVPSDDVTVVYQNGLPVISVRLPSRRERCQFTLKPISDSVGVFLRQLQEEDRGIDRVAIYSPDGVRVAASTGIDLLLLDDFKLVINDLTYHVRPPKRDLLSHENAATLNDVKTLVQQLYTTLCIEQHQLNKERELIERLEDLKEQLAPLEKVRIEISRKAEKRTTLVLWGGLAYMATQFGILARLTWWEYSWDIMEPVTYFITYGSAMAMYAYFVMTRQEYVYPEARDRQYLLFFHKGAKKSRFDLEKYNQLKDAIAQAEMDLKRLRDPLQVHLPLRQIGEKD
T1 sequence (Q9H4I9 48-107 partner limits assumed): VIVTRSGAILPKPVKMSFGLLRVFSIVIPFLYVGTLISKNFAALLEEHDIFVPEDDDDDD
Experimental: (§2) As a sudden influx of calcium to the mitochondria can cause ROS induction, we tested whether DMGV regulates calcium flux to induce ROS. Calcium flux was measured by flow cytometry using the calcium indicator Fluo-8. While stimulation of T cell receptor (TCR) by a stimulatory antibody triggered calcium release from ER (efflux), which in turn induced calcium influx from the outside to cytosol (influx). […] Because of the close proximity between ER and mitochondria, calcium efflux from ER leads to calcium import to the mitochondria, which can be mediated by MCU.
as §1

[7] = system: MCU mutants deleted of Ile127, V135, or Ile127 and V135; experiment: MCU deletion mutants transfected to MCU KO cells; format: cell-based; conditions: for dependence of MCU activation on Ile127: MCU mutant deleted of Ile127 in MCU KO cells; for dependence of MCU activation on V135: MCU mutant deleted of V135 in MCU KO cells
Description: To test whether Ile127 and V135 are important for these compounds to activate MCU, we generated 3 different MCU mutants deleted of Ile127, V135, or Ile127 and V135. These MCU mutants were transfected to MCU KO cells and stimulated with kaempferol, daidzein, quercetin, or DMGV.

[8] = system: calcium flux; experiment: Calcium flux by flow cytometry using Fluo-8; format: cell-based; conditions: Ru360
Experimental: as §2

## CN(C)C(N)=NCCC[C@H](N)C(=O)O [ADMA, asymmetric dimethylarginine]
[1]
  ROS induction in AGXT2^−/− T cells: do not induce ROS

## COC1=C(OC)C(=O)C(CCCCCCCCCC[P+](c2ccccc2)(c2ccccc2)c2ccccc2)=C(C)C1=O [MitoQ, reference compound]
[2]; MitoQ (100 nM) 15 min before stimulation with DMGV (504)
  effect on DMGV-induced ROS production: completely inhibited ROS production
[3]; human T cells, DMGV with or without MitoQ, 4 days
  effect on DMGV-induced T cell death: rescued T cells from DMGV-induced cell death
[4]
  effect on DMGV-induced inhibition of AGXT2^+/+ T cells: rescued AGXT2^+/+ T cells from DMGV-induced inhibition
  effect on DMGV-induced rescue of AGXT2^−/− T cells: inhibited DMGV-induced rescue of AGXT2^−/− T cells

## CC(=N)NCCCC[C@H](N)C(=O)O [N6-(1-iminoethyl)-L-lysine]
[5]
  ROS induction: does not induce ROS
  T cell proliferation: does not induce ROS or inhibit T cell proliferation

## CN=C(NC)NCCC[C@H](N)C(=O)O [SDMA, symmetric dimethylarginine]
[1]
  ROS induction in AGXT2^−/− T cells: do not induce ROS

## O=c1c(-c2ccc(O)cc2)coc2cc(O)ccc12 [daidzein, 7-hydroxy-3-(4-hydroxyphenyl)-4H-chromen-4-one]
[2]
  induction of ROS: induced mitochondrial calcium as wells ROS
[6]
  induction of mitochondrial calcium: induced mitochondrial calcium
[7]
  dependence of MCU activation on Ile127: independent on it
  dependence of MCU activation on V135: mostly dependent on V135

## O=c1c(O)c(-c2ccc(O)cc2)oc2cc(O)cc(O)c12 [kaempferol, 3,5,7-Trihydroxy-2-(4-hydroxyphenyl)-4H-chromen-4-one]
[2]
  induction of ROS: induced mitochondrial calcium as wells ROS
[3]; activated human T cells
  survival of activated human T cells: suppressed survival of activated human T cells via mitochondrial ROS
[6]
  induction of mitochondrial calcium: induced mitochondrial calcium
[7]
  dependence of MCU activation on Ile127: independent on it
  dependence of MCU activation on V135: totally dependent on it; also recorded: mostly dependent on V135

## Ru360 [reference compound]
[8]
  effect on TCR-induced calcium flux: not affected
[6]; Ru360 (104)
  effect on DMGV-induced calcium influx to the mitochondria: completely inhibited
